Reference: patent EP0437336B1, “Biophosphoryl hydrazines and their use as pesticides” (priority 1990, dated 1991)
Converted amounts (≈) assume the structure as drawn. Read-outs that look alike come from different tables or passages of the source.

How the values were obtained:
[1] = system: Two-Spotted Spider Mite; assay: Biological Method D: Foliar Insecticidal Activity Test, mite test; type: in vivo, Tetranychus urticae; settings: Tetranychus urticae, Two-Spotted Spider Mite
[2] = system: Boll Weevil; assay: Biological Method D: Foliar Insecticidal Activity Test, boll weevil test; type: in vivo, Anthonomous grandis; settings: Boll Weevil, compounds a-r
[3] = system: Green Peach Aphid; assay: Biological Method D: Foliar Insecticidal Activity Test, aphid test; type: in vivo, Myzus persicae; design: key: I = inactive at concentration tested; settings: compounds a-r
Description: (§1) Biological Method D: Foliar Insecticidal Activity Test
(§2) In evaluating the foliar insecticidal activity of the compounds of this invention against insects and mites, the following test procedures were employed.
(§3) Not all compounds were tested at each of the several concentrations stated above. Test concentrations of a compound were selected as those most likely to differentiate dose response of a particular compound toward a particular test insect.
(§4) Initial evaluations were made on one or more of the following pests:
(§5) For the aphid test, infested broccoli (Brassica oleracea italica var. DiCicco) leaves containing about 50 aphids were placed in a Petri dish lid on a moistened piece of cotton. The leaves were then sprayed to thorough wetness with the test solution using a rotating turntable, held for twenty-four hours and then the percentage killed was determined.
(§6) The mortalities obtained in this manner were plotted on logarithmic probability paper.
(§7) The rotating turntable consists of a fixed, continuously operating spray nozzle under which targets are rotated at a fixed speed and distance. If the target is a Petri dish (such as for the bean beetle, armyworm, mite, or aphid tests), the distance from the nozzle is 38.1 cm (15 inches). If the target is a Mason jar (such as for the boll weevil test), the distance from the nozzle is 17.8 cm (7 inches). The nozzle is located 8 inches from the rotating shaft. The targets on individual platforms revolve around the shaft at 1 revolution per 20 seconds but only a brief portion of this time occurs in the spray path. Targets pass only once under the nozzle and then are removed to drying hoods.
(§8) The nozzle used is a 1/4 JCO Spraying Systems (Wheaton, Illinois) air atomizing nozzle equipped with a No. 2850 fluid cap and a No. 70 air cap. At the 68.95 x 10³ Pa gauge (10 psig) air pressure used and with liquid siphon feed, 1.89 ℓ/hr [0.5 GPH (gallons per hour)] are delivered in a round spray pattern with a 21 degree spray angle. Targets are misted with spray droplets to the point that the droplets coalesce to form a uniform thin film insufficient to drown test organisms.

[4] = system: Southern Armyworm; assay: Biological Method D: Foliar Insecticidal Activity Test, Southern Armyworm test; type: in vivo, Spodoptera eridania; design: key: I = inactive at concentration tested; settings: compounds a-r
Description: as §1, §2, §3, §4
(§9) For the Mexican Bean Beetle and Southern armyworm tests, individual lima bean (Phaseolus limeniss var. Woods' Prolific) leaves were placed on moistened pieces of filter paper in Petri dishes. The leaves were then sprayed with the test solution using a rotating turntable and allowed to dry. The dishes were then infested with 10 third instar larvae of either the Mexican Been Beetle or the Southern Armyworm. The dishes were then covered. Percent mortality was determined for each species and spray concentration at 48 and 96 hours after treatment.
as §6, §7, §8

[5] = system: Boll Weevil; assay: Biological Method D: Foliar Insecticidal Activity Test, boll weevil test; type: in vivo, Anthonomous grandis; design: key: I = inactive at concentration tested; settings: compounds a-r
Description: as §1, §2, §3, §4
For the boll weevil test, 10 adult weevils were placed in a 0.24 ℓ (0.5 pint) glass Mason jar containing a small cube of apple. The weevils were confined to the jar by fiberglass screen mesh secured by a screw-type rim cap. The jars were then sprayed with the test solution using a rotating turntable; directing the spray through the mesh into the jar. The percentage killed was determined after forty-eight and ninety six hours.
as §6, §7, §8

[6] = system: Green Peach Aphid; assay: Biological Method D: Foliar Insecticidal Activity Test, aphid test; type: in vivo, Myzus persicae; settings: Myzus persicae, foliar; Green Peach Aphid; compounds a-r
Description: as §1, §2, §3, §4, §5, §6, §7, §8

[7] = system: Mexican Bean Beetle; assay: Biological Method D: Foliar Insecticidal Activity Test, Mexican Bean Beetle test; type: in vivo, Epilachna varivestis; settings: Epilachna varivestis, Mexican Bean Beetle
[8] = system: Southern Armyworm; assay: Biological Method D: Foliar Insecticidal Activity Test, Southern Armyworm test; type: in vivo, Spodoptera eridania; settings: Spodoptera eridania, Southern Armyworm
Description: as §1, §2, §3, §4, §9, §6, §7, §8

[9] = system: Green Peach Aphid; assay: Biological Method D: Foliar Insecticidal Activity Test, aphid test; type: in vivo, Myzus persicae; design: key: I = inactive at concentration listed
[10] = system: Boll Weevil; assay: Biological Method D: Foliar Insecticidal Activity Test, boll weevil test; type: in vivo, Anthonomous grandis; design: key: I = inactive at concentration listed
[11] = system: southern corn rootworm, Diabrotica undecimpunctata howardi; settings: percent control relative to infested check, from root damage ratings; 14 days post-spraying
[12] = system: southern corn rootworm, Diabrotica undecimpunctata howardi; assay: Biological Method A: Corn Rootworm Screening Test (treated non-aggressive soil); settings: soil concentration giving 90% mortality, 10 days at 27°C
[13] = system: southern corn rootworm, Diabrotica undecimpunctata howardi; settings: at-planting soil application
[14] = foliar, compounds a-r, read-out: LC 50 TSM
[15] = foliar, 48 hrs, compounds a-r, read-out: LC 50 BB 48 hrs.
[16] = foliar, 96 hrs, compounds a-r, read-out: LC 50 BB 96 hrs.

Row | Compound | LC50 [1, 14] [µg/mL] | LC50 GPA [3] | LC50 AW 48 hrs [4] | LC50 AW 96 hrs [4] | LC50 BW 48 hrs [5] | LC50 [6] [µg/mL] | LC50 [7, 15] [µg/mL] | LC50 [7, 16] [µg/mL] | LC50 BW 96 hrs [5] | further results
1 | CCOP(=O)(NN(C)P(=S)(OC)OC)SC(C)CC (stereo not drawn) [l, N-(O,O-dimethylthiophosphoryl) N'-(O-ethyl S-secbutyl chloro phosphoryl) N-methyl hydrazine] | 660 (≈ 1880 µM) | I | I | I | I |  |  |  |  | LC50 BW 96 hrs [2]: 740 ppm
2 | CCOP(=S)(OCC)N(C)N(C)P(=S)(OCC)OC(C)C (stereo not drawn) [b, N-(O,O-diethylthiophosphoryl) N′-(O-ethyl O-isopropylthiophosphoryl) N,N′-dimethyl hydrazine] | 5.5 (≈ 14.5 µM) |  | I | I |  | 36 (≈ 95.1 µM) | 150 (≈ 396 µM) | 150 (≈ 396 µM) |  | LC50 BW 48 hrs ([2]; 48 hrs): 740 ppm; LC50 BW 96 hrs [2]: 150 ppm
3 | COP(=S)(NN(C)P(=S)(OC)OC)OC [h] |  | I | I | I | I |  |  |  | I | 
4 | CCOP(=S)(OCC(C)(C)C)N(C)NP(=S)(OC)OC (stereo not drawn) [i, N-(O,O-dimethylthiophosphoryl) N′-(O-ethyl O-neopentylthiophosphoryl) N′-methyl hydrazine] | 150 (≈ 412 µM) | I | I | I | I |  |  |  | I | 
5 | CCOP(=S)(NN(C)P(=S)(OCC)OCC)OCC [a, N,N′-bis-(O,O-diethylthiophosphoryl) N-methyl hydrazine] | 150 (≈ 428 µM) |  |  |  | I | 150 (≈ 428 µM) | 500 (≈ 1430 µM) | 420 (≈ 1200 µM) | I | LC50 ([8]; foliar, 48 hrs, compounds a-r, read-out: LC 50 AW 48 hrs.): 150 µg/mL (≈ 428 µM); LC50 ([8]; foliar, 96 hrs, compounds a-r, read-out: LC 50 AW 96 hrs.): 150 µg/mL (≈ 428 µM)
6 | CCCOP(=S)(NNP(=S)(OCC)OCCC)OCC (stereo not drawn) [Compound 29, reference compound] |  |  |  |  |  |  |  |  |  | LC50 ([1]; Method D foliar test, read-out: LC50 TSM): 150 µg/mL (≈ 412 µM); LC50 ([7]; Method D foliar test, 48 hrs, read-out: LC50 BB 48 hrs.): 150 µg/mL (≈ 412 µM); LC50 ([7]; Method D foliar test, 96 hrs, read-out: LC50 BB 96 hrs): 150 µg/mL (≈ 412 µM); LC50 ([8]; Method D foliar test, 48 hrs, read-out: LC50 AW 48 hrs): 420 µg/mL (≈ 1150 µM); LC50 ([8]; Method D foliar test, 96 hrs, read-out: LC50 AW 96 hrs): 180 µg/mL (≈ 494 µM); LC50 GPA [9]: I; LC50 BW 48 hrs ([10]; 48 hrs): I; LC50 BW 96 hrs ([10]; 96 hrs): I; foliar systemic nonagressive Method B crw % control at 0.56 kg/ha (0.5 lb/acre) [11]: 38%; primary nonagressive Method A crw LC90 [12]: 0.09 ppm; secondary aggressive Method C crw LC50 ([13]; rated 17 days post-infestation): ~3.03 kg/ha; secondary aggressive Method C crw LC50 ([13]; value in brackets): ~2.7 lb/acre
7 | CCOP(=S)(NN(C)P(=S)(OCC)OCC)OCC(C)(C)C (stereo not drawn) [j] |  | I | I | I | I |  |  |  | I | 
8 | CCOP(=S)(OCC)N(C)NP1(=S)OCC(C)(C)CO1 [n] |  | I | I | I | I |  | 150 (≈ 414 µM) | 150 (≈ 414 µM) | I | 
9 | CCOP(=O)(SC(C)CC)N(C)NP(=S)(OCC)OCC(C)(C)C (stereo not drawn) [k] |  |  | I | I | I | 300 (≈ 713 µM) |  | 52 (≈ 124 µM) | I | 
